Earlier results on 2 compounds are cited in US8097593B1, “Lipid A and other carbohydrate ligand analogs” (Oncothyreon Inc., priority 2002, dated 2012).

Assay in data set [1]: not given
The source holds these as a separate data set.

For monophosphoryl Lipid-A, the “immunostimulating activities, in words” value (compared with diphosphoryl Lipid-A (and endotoxin itself)) is given as “comparable”. The “times less potent in eliciting toxic and pyrogenic responses” value (on a molar basis) is 1000 times.
With `CC(C)(C)C` [CC(C)(C)C, 2,2-dimethylpropane], the “experimental log P” value in data set [1] is given as 3.11.
